According to US20250352562A1, “PREVENTION OF SYMPATHETIC DENERVATION OF THE PINEAL GLAND IN CARDIAC DISEASE” (TECHNISCHE UNIVERSITÄT MÜNCHEN, priority 2022, published 2025):
Entries after “also recorded” stand apart in the source; their conditions may differ.

What was measured:
[1] = tested on: C3H/HeJ mice after bilateral removal of SCG (SCGx); experiment: Assessment of diurnal rhythm after bilateral removal of SCG (SCGx); type: in vivo; settings: 50 μg melatonin once intraperitoneally
[2] = tested on: nicotine-stimulated sympathetic neurons co-cultured with LPS-preactivated macrophages; experiment: Co-culture of sympathetic neurons and bone marrow-derived macrophages; type: cell-based, mouse; settings: CVF 20 U/ml for 90 min on LPS-preactivated macrophages; 1 μM nicotine; 48 h co-culture
Description: For the co-culture experiment, BMDM precursors were isolated and differentiated to macrophages as mentioned above. On day 6 of differentiation, primary neurons were isolated as described above. ˜5,000 neurons were seeded on separate wells of a 96-well Ibidi plate precoated with Laminin (0.1 mg/ml). At day 7 of differentiation, macrophages were either stimulated with PBS (control) or LPS (5 ng/ml) overnight. On the following day, LPS-preactivated macrophages were either incubated with PBS (control) or Cobra Venom Factor (CVF; 20 U/ml) for 90 min at 37° C. for complement inhibition. Afterwards, macrophages were chemically detached from the Petri dishes using Accutase and seeded around neurons. ˜10,000 macrophages were added per well. Co-culture medium was a mixture of neuronal and macrophage medium. Furthermore, part of the co-culture medium was supplemented with 1 μM Nicotine for artificial neuronal stimulation. 4 wells were cultivated per condition. One well per condition was transferred into the EVOS M7000 for live cell imaging (timelapse). […]
After 48 hours of co-culture (at 37° C. and 5% CO2), cells were fixated using 4% Paraformaldehyde. […] For quantification, two tilescans (2×2) per well were acquired using a 63× objective of a confocal microscope (Leica TCS SP5 II) and quantified for neuronal cell number and axonal dimensions using Imaris (Bitplane, version 9.5). […]

Compound	diurnal rhythmicity (activity, ratio between dark and light) [1]	neurite outgrowth (axon length, branching points) [2]	neuronal cell loss (neuronal cell number per field of view) [2]
COc1ccc2[nH]cc(CCNC(C)=O)c2c1 [melatonin]	completely restored; also recorded: rescued	–	–
Cobra venom factor	–	rescued	effectively prevented
